Data published in BindingDB's records for PubMed 39288705 (Comenius University Bratislava).
pIC50, pKd: −log10 of the molar value.

How the values were obtained:
[1] = target: T1, Replicase polyprotein 1ab (Severe acute respiratory syndrome coronavirus 2, UniProt P0DTD1); test: Binding affinity to SARS-CoV-2 3CL protease extracted from Escherichia coli BL21 (DE3) Rosetta cells assessed as dissociation constant
[2] = target: T1, Replicase polyprotein 1ab; test: Inhibition of SARS-CoV-2 3CL protease extracted from Escherichia coli BL21 (DE3) Rosetta cells using DabcylKNSTLQSGLRKE-Edan as substrate preincubated for 60 mins followed by substrate addition and measured after 20 mins by FRET assay
[3] = target: T1, Replicase polyprotein 1ab; test: Inhibition of SARS-CoV-2 3CL protease by FRET assay
[4] = target: T1, Replicase polyprotein 1ab; test: Binding affinity to SARS-CoV-2 3CL protease assessed as dissociation constant by SPR analysis

CCC(C(=O)Nc1cc(NC2CCOC2)ccc1C)n1cc(Cl)cc2nc(SCc3ccc(F)cc3)nc1-2 (stereo not given)
pKd [1]: 5.95

CCC(C(=O)Nc1cc(NC2CCOCC2)ccc1C)n1cc(Cl)cc2nc(SCc3ccc(F)cc3)nc1-2 (stereo not given)
pIC50 [2]: 6.28
pKd [1]: 6.00

CCC(C(=O)Nc1cc(NC2CCNC2)ccc1C)n1cccc2nc(SCc3ccc(F)cc3)nc1-2 (stereo not given)
pIC50 [3]: 6.85

CCC(C(=O)Nc1cc(NC2COC2)ccc1C)n1cccc2nc(SCc3ccc(F)cc3)nc1-2 (stereo not given)
pKd [4]: 5.85
